{
  "source": "patent US20020160981A1",
  "about": "“Compositions containing an association of aspirin and an anti-Xz oligosaccharide and use of an anti-Xa oligosaccharide optionally in combination with aspirin” (Sanofi-Synthelabo, priority 1997, published 2002)",
  "key": {"[1]": {"test_system": "prothrombin fragment 1+2", "experiment": "prothrombin fragment 1+2 levels in PTCA patients", "assay_type": "in vivo, human", "settings": "2 hours after PS injection; fell from 2.08±1.04 before"}, "[2]": {"test_system": "factor Xa"}, "[3]": {"experiment": "activated clotting time (ACT) in PTCA patients", "assay_type": "in vivo, human", "settings": "after 12 mg PS i.v. and 500 mg i.v. aspirin"}, "[4]": {"test_system": "Thrombin-antithrombin complexes", "experiment": "thrombin-antithrombin complexes levels (TAT) in PTCA patients", "assay_type": "in vivo, human", "settings": "2 hours after PS injection; fell from 21.9±18.7 before"}, "[5]": {"test_system": "patients undergoing a transluminal angioplasty of the coronaries", "experiment": "pilot clinical study in patients undergoing PTCA: thrombus formation at PTCA sites and TIMI flow in target vessel", "assay_type": "in vivo, human", "settings": "71 patients", "description": "A single dose of 12 mg of PS via the intravenous route and 500 mg of aspirin, via the intravenous route, was administered to the patients.\nTo assess the antithrombotic activity 71 patients with stable angina (26), recent unstable angina (11) or recent myocardial infarction (34) with type A or B coronary lesions underwent PTCA with a single 12 mg PS i.v. bolus injection and 500 mg i.v. aspirin. Angiography was repeated 24 h after PTCA. The endpoints were thrombus formation at PTCA sites and the thrombolysis in myocardial infarction (TIMI) flow in target vessel. Heparin was not allowed before, during and within 24 h after PTCA."}, "[6]": {"settings": "single 12 mg PS i.v. bolus and 500 mg i.v. aspirin, no heparin"}},
  "data": [
    {"smiles": "CO[C@H]1OC(COS(=O)(=O)O)[C@@H](O[C@@H]2OC(C(=O)O)[C@H](O[C@@H]3OC(COS(=O)(=O)O)[C@@H](O[C@@H]4OC(C(=O)O)[C@@H](O[C@H]5OC(COS(=O)(=O)O)[C@@H](O)C(O)C5NS(=O)(=O)O)C(O)C4O)C(OS(=O)(=O)O)C3NS(=O)(=O)O)C(O)C2OS(=O)(=O)O)C(O)C1NS(=O)(=O)O", "note": "(stereo partly drawn) [PS, methyl O-(2-deoxy-2-sulphoamino-6-O-sulpho-α-D-gluco-pyranosyl)-(1→4)-O-(β-D-glucopyranosyluronic acid)-(1→4)-O-(2-deoxy-2-sulphoamino-3,6-di-O-sulpho-α-D-glucopyranosyl)-(1→4)-O-(2-O-sulpho-α-L-idopyranosyl-uronic acid)-(1→4)-2-deoxy-2-sulphoamino-6-O-sulpho-α-D-glucopyranoside]", "values": [
      {"measurement": "prothrombin fragment 1+2", "setting": "[1]", "value": "1.54 ± 82", "unit": "ng/mL"},
      {"measurement": "Anti-Xa activity, peak", "setting": "[2]; 10 min. after 12 mg PS i.v. bolus (with 500 mg i.v. aspirin)", "value": "1.20±0.29", "unit": "U anti-Xa/ml"},
      {"measurement": "Anti-Xa activity, maintained on average", "setting": "[2]; 2 hours after PS administration, 12 mg i.v. (with 500 mg i.v. aspirin)", "value": "0.87 ±0.14", "unit": "U anti-Xa/ml"},
      {"measurement": "activated clothing time ACT", "setting": "[3]", "value": "remained unchanged"},
      {"measurement": "Thrombin-antithrombin complexes levels (TAT)", "setting": "[4]", "value": "4.8 ± 3.8", "unit": "µg/L"},
      {"measurement": "major bleeding", "setting": "[5]; 12 mg PS i.v. and 500 mg i.v. aspirin", "value": "No major bleeding occurred"},
      {"measurement": "Acute thrombotic closure at dissected PTCA site", "setting": "[5]; [6]", "value": 1, "unit": "patient"},
      {"measurement": "distal embolization of a thrombus containing plaque", "setting": "[5]; [6]", "value": 1, "unit": "patient"},
      {"measurement": "TIMI 3 flow without thrombus at PTCA site", "setting": "[5]; at 24 h after PTCA, 12 mg PS i.v. and 500 mg i.v. aspirin", "value": 71, "unit": "patients"}
    ]}
  ]
}
